Assay results taken from patent publication US20110021530A1, “PYRIDAZINE DERIVATIVES AND THEIR USE AS THERAPEUTIC AGENTS IN THE TREATMENT OF SKIN DISORDERS” (XENON PHARMACEUTICALS INC., priority 2008, published 2011).
Marks after values point to notes of the source that are not given here.

Assays:
sebaceous glands = experiment: Effect of topically administered LCF369 on the sebaceous glands of NMRI mice (histomorphometry); assay type: in vivo, female Crl:NMRI mice; conditions: for atrophogenic effect (recovery): 1% LCF369 7-day treatment
Description: LCF369 is prepared either in a solution of ethanol/propylene glycol (3/7, v/v) or in topical formulations at 1.0, 0.5 or 0.1% for testing in female Crl:NMRI mice. In general, shaved application sites of approximately 2.5 cm^2 on the back of mice are treated twice daily (once on weekends or at study termination) with 50 μl of the LCF369 preparations. To prevent the animals from potential oral uptake of the epicutaneously applied compounds, they are fitted with ruffs and housed individually. After the last application, the animals are euthanised; the treated sites dissected and prepared for histological sections. Hematoxilin/eosin (HE)-stained 3 μm-thick sections are prepared from formalin-fixed, paraffin-embedded tissue. From each animal, one HE-stained section per site is histomorphometrically examined. The entire sections of approximately 10 mm length are evaluated microscopically (200×) for sebaceous glands. The mean size and mean number (per mm^2 dermis) of sectioned alveolar units of the sebaceous glands are determined in a coded fashion with an image analyzer (Axiovision, Zeiss). For statistical analysis, morphometric data are analyzed with a T-test or Mann-Whitney rank sum test. Frozen tissue sections (5 μm) are used for oil red O (lipid) staining.
Groups of 5 mice are treated with 50 μl of 1% or 0.1% LCF369 twice daily (except on weekends, when the animals are treated once daily and on study termination) for 8 days (i.e. 14 applications in total). Four control animals are treated similarly with the vehicle alone. In life, the animals are observed for clinical signs and macroscopic changes of the application sites. One day after the last application, an evaluation is performed. In animals treated with 1.0% LCF369, untreated skin samples distant from the treated sites are also collected in order to assess systemic activity due to percutaneous absorption of LCF369.
Groups of 4 mice are treated with 1.0% LCF369 twice daily for 2, 4, 6 and 8 days (i.e. up to 16 applications). Control groups remain untreated or are treated with the vehicle alone twice daily for 8 days.
LCF369 is tested at 1.0%, 0.5% and 0.1%, groups of 6 mice are treated twice daily for 7 consecutive days. Evaluation is performed on the day following the 14th application.
A 7-day b.i.d. (twice daily) treatment schedule (except on week ends when the animals were treated once daily) with 1.0% LCF369 is applied to groups of 7 mice which are evaluated on days 8 (one day after the 14th application), 24 and 41. For comparison, skin sections from animals treated with vehicle are examined on day 8 and skin samples from untreated animals of the same delivery were examined in parallel on days 8 and 41.
Three different formulations containing 0.5% LCF369 are tested: i) emulsion gel with the penetration enhancer SEPA-9™ (batch 92.66.01-ra), ii) emulsion gel without a penetration enhancer (batch 9450-05-Ra), and iii) a formulation containing particulate compound (“follicular targeting formulation”). They are evaluated after 9 or 13 applications.

[1] = Solubility in co-solvents; assay type: physicochemical; conditions: compared with other co-solvents
[2] = 0.1% LCF369 topical, 8 days (14 applications), treated sites (locally), day 9, mean (SD), 5 animals
[3] = 0.5% LCF369 emulsion gel containing SEPA-9, 9 applications, mean (SD), 3 animals
[4] = 0.5% LCF369 emulsion gel containing SEPA-9, 13 applications, mean (SD), 3 animals
[5] = 0.5% LCF369 twice daily 7 days, vs vehicle-treated controls
[6] = 1.0% LCF369 topical, 8 days (14 applications), treated sites (locally), day 9, mean (SD), 5 animals
[7] = 1.0% LCF369 topical, 8 days, sites distant from the treated sites (distantly), day 9, mean (SD), 5 animals
[8] = 1% LCF369 twice daily 7 days, vs vehicle-treated controls
[9] = 1.0% LCF369 twice daily for 8 days as printed, vs vehicle, time point of this value not stated
[10] = 1.0% LCF369 twice daily, 2 days of treatment, one day after last application, 4 animals
[11] = 1.0% LCF369 twice daily, 4 days of treatment
[12] = 1.0% LCF369 twice daily, 6 days of treatment
[13] = 1.0% LCF369 twice daily, 8 days of treatment
[14] = 1.0% LCF369 twice daily, after 4 days, vs vehicle
[15] = 1.0% LCF369 twice daily, after 6 days, vs vehicle
[16] = 1.0% LCF369 twice daily, after 8 days, vs vehicle
[17] = LCF 1%, 7-day b.i.d. treatment, evaluation day 8 (one day after last application), 7 animals
[18] = LCF 1%, 7-day treatment, evaluation day 24 (17 days after last application)
[19] = LCF 1%, 7-day treatment, evaluation day 41 (34 days after last application)
[20] = LCF369 0.1% (w/v) twice daily for 7 days
[21] = LCF369 0.5% (w/v) twice daily for 7 days
[22] = LCF369 1.0% (w/v) twice daily for 7 days, one day after last application, 6 animals
[23] = LCF369-treated vs vehicle-treated skin
[24] = one day after the 7 days-treatment period with 1% LCF369

Structure (SMILES): O=C(NCCC1CC1)c1ccc(N2CCN(C(=O)c3cc(F)ccc3C(F)(F)F)CC2)nn1 [LCF369, 6-[4-(5-Fluoro-2-trifluoromethylbenzoyl)piperazin-1-yl]pyridazine-3-carboxylic acid (2-cyclopropylethyl)amide]
- atrophogenic effect (sebaceous glands; 0.1% LCF369, 8 days): little or no atrophogenic effects
- Number of sebaceous glandular units (sebaceous glands; [2]): 34.3 (4.1) per mm^2 dermis
- Size of sebaceous glandular units (sebaceous glands; [2]): 1090 (200) μm^2
- Number of sebaceous glandular units (sebaceous glands; [3]): 10.6 (5.89)*
- Size (μm^2) of sebaceous glandular units (sebaceous glands; [3]): 745.8 (339.3)*** μm^2
- Number of sebaceous glandular units (sebaceous glands; [4]): 10.1 (3.48)*
- Size (μm^2) of sebaceous glandular units (sebaceous glands; [4]): 946.1 (134.0)*** μm^2
- hyper/parakeratosis and acanthosis in skin sections (sebaceous glands; 0.5% LCF369 formulation containing SEPA-9 vs placebo-treated (vehicle-treated) samples): hyper/parakeratosis and acanthosis is more pronounced
- effect on sebaceous glands (sebaceous glands; 0.5% LCF369 formulation containing penetration enhancer SEPA-9, 9 and 13 applications): significant atrophy of sebaceous glands
- reduction of mean size of sebaceous glands (sebaceous glands; [5]): 48%
- reduction of numbers of sebaceous glands per mm^2 dermis (sebaceous glands; [5]): 38%
- atrophogenic effect (recovery) (sebaceous glands; day 24): substantially reduced
- atrophogenic effect (recovery) (sebaceous glands; day 41): almost completely absent
- differences in numbers and sizes of sebaceous glands at sites distant from the LCF369 treatments (sebaceous glands; 1.0% LCF369, 8 days, distant sites): no significant differences
- reduction of sebaceous glands in numbers, factor (sebaceous glands; 1.0% LCF369, 8 days, vs vehicle, p<0.001): about 2.5
- reduction of sebaceous glands in sizes (sebaceous glands; 1.0% LCF369, 8 days, vs vehicle, p<0.01): about 1.9 fold
- Number of sebaceous glandular units (sebaceous glands; [6]): 13.7 (8.2) *** per mm^2 dermis
- Size of sebaceous glandular units (sebaceous glands; [6]): 571 (200) ** μm^2
- Number of sebaceous glandular units (sebaceous glands; [7]): 28.4 (6.0) per mm^2 dermis
- Size of sebaceous glandular units (sebaceous glands; [7]): 1090 (250) μm^2
- reduction of numbers of sebaceous glands (sebaceous glands; [8]): 57%
- reduction of size of sebaceous glands (sebaceous glands; [8]): 60%
- treatment period after which the effect is statistically significant (sebaceous glands; 1.0% LCF369 twice daily (8 applications)): 4 days
- progressive decrease in the numbers of sebaceous glands (sebaceous glands; [9]): 12%
- progressive decrease in the size of sebaceous glands (sebaceous glands; [9]): 19%
- Number of sebaceous glandular units (sebaceous glands; [10]): 24.8 per mm^2 dermis
- Size (μm^2) of sebaceous glandular units (sebaceous glands; [10]): 1095 μm^2
- Number of sebaceous glandular units (sebaceous glands; [11]): 18.0 per mm^2 dermis
- Size (μm^2) of sebaceous glandular units (sebaceous glands; [11]): 875 μm^2
- Number of sebaceous glandular units (sebaceous glands; [12]): 12.6 per mm^2 dermis
- Size (μm^2) of sebaceous glandular units (sebaceous glands; [12]): 613 μm^2
- Number of sebaceous glandular units (sebaceous glands; [13]): 7.0 per mm^2 dermis
- Size (μm^2) of sebaceous glandular units (sebaceous glands; [13]): 374 μm^2
- decrease of mean size of sebaceous glands (sebaceous glands; [14]): 35%
- reduction of numbers of sebaceous glands (sebaceous glands; [14]): 35%
- decrease of mean size of sebaceous glands (sebaceous glands; [15]): 35%
- reduction of numbers of sebaceous glands (sebaceous glands; [15]): 54%
- decrease of mean size of sebaceous glands (sebaceous glands; [16]): 72%
- reduction of numbers of sebaceous glands (sebaceous glands; [16]): 75%
- Number of sebaceous glandular units (sebaceous glands; [17]): 9.28
- Size (μm^2) of sebaceous glandular units (sebaceous glands; [17]): 708 μm^2
- Number of sebaceous glandular units (sebaceous glands; [18]): 17.4
- Size (μm^2) of sebaceous glandular units (sebaceous glands; [18]): 1154 μm^2
- Number of sebaceous glandular units (sebaceous glands; [19]): 21
- Size (μm^2) of sebaceous glandular units (sebaceous glands; [19]): 1456 μm^2
- Number of sebaceous glandular units (sebaceous glands; [20]): 23.8 per mm^2 dermis
- Size (μm^2) of sebaceous glandular units (sebaceous glands; [20]): 1396 μm^2
- Number of sebaceous glandular units (sebaceous glands; [21]): 14.5 per mm^2 dermis
- Size (μm^2) of sebaceous glandular units (sebaceous glands; [21]): 870 μm^2
- Number of sebaceous glandular units (sebaceous glands; [22]): 10.1 per mm^2 dermis
- Size (μm^2) of sebaceous glandular units (sebaceous glands; [22]): 675 μm^2
- histochemical (HE) staining of skin, sebaceous glands (FIG. 2B) (sebaceous glands; [23]): fewer and smaller (atrophic) sebaceous glands
- oil red O staining, lipids associated with hair shafts (FIG. 3B) (sebaceous glands; [23]): significantly reduced lipids associated with hair shafts
- minimal statistically significant effective concentration (sebaceous glands; applied twice daily (50 μL each time) for 7 days): 0.5%
- reduction of mean size of sebaceous glands (sebaceous glands; [24]): 50%
- reduction of numbers of sebaceous glands (sebaceous glands; [24]): 57%
- concentration at which efficacy is seen (sebaceous glands; topical application): ≥ 0.4%
- treatment time at which efficacy is seen (sebaceous glands; topical application): ≥ 4 days
- solubility in benzyl alcohol [1]: surprisingly good solubility
